Test results published in ChEMBL document CHEMBL3507680, “University of Dundee, Gates Library screen for HepG2 cell viability”.

Assay: Human HepG2 cell viability assay in 384 well format
Format: toxicity, cell-based
Set-up: dose 125 nL, time 70.5 hour; cytotoxicity at 70.5 h: concentration not given beside the values
Conditions: HepG2 cells, read-out: Inhibition

| SMILES | cytotoxicity at 70.5 h [%] |
| --- | --- |
| O=C(c1cscn1)N1CC[C@@H]2[C@@H]1CCN2CC1CCOC1 (stereo not given in full) | -1.02 |
| CS(=O)(=O)N1CC2(CCN(C(=O)c3ccncc3)CC2)c2ccccc21 | -6.91 |
| CN(Cc1nccn1C)c1ccc(-c2nccn2C)nn1 | 18.2 |
| CCC(=O)NCC(CC)Oc1cccc(F)c1 (stereo not given) | -3.64 |
| CC(C)n1cc(C(=O)N2CCN(c3cccc(C(F)(F)F)c3)CC2)cn1 | -5.28 |
| O=C(c1cnc(-c2ccccn2)s1)N1CCCC1Cn1cccn1 (stereo not given) | -8.6 |
| Cc1n[nH]c(C2CN(CC(=O)NCCc3ccccc3C)CCO2)n1 (stereo not given) | -109 |
| O=C(COCC1CCCO1)N(Cc1cccnc1)c1ccc(F)cc1 (stereo not given) | 2.18 |
| CCCc1n[nH]c(C2CN(C(=O)CCc3cscn3)CCO2)n1 (stereo not given) | -1.57 |
| O=C(CCN1CCCCO1)N1CCC(CO)(Cc2ccccc2)CC1 | -6.23 |
| O=C(c1sccc1Cl)N1CCC(Cn2cc(CO)nn2)CC1 | -4.2 |
| CN(Cc1noc2c1CCCC2)C(=O)C1CCOc2ccccc2C1 (stereo not given) | -3.46 |
| Cc1oc(-c2cccs2)nc1C(=O)N1CCCC1Cn1cccn1 (stereo not given) | -6.8 |
| Cc1cc(C)c(C)c(OCCCNC(=O)NC(C)c2nncn2C)c1 (stereo not given) | 14.5 |
| CC(C1CC1)N(C)C(=O)c1cnc(-c2ccc3c(c2)OCO3)s1 (stereo not given) | 13.8 |
| CS(=O)(=O)N1CCC2(CC1)CC(CC(=O)NCC1CC1)c1ccccc12 (stereo not given) | 5.79 |
| CCC[C@H]1CN(CCOC)C[C@@H]1NC(=O)Cn1cc(C)cn1 | 4.5 |
| CC(=O)N1CCC2(C1)C(=O)N(CC1CC1)c1ccccc12 (stereo not given) | -8.89 |
| CN(Cc1ccc(F)cc1)CC1(O)CCN(C(=O)c2cccs2)C1 (stereo not given) | 2.73 |
| CCN1C(=O)C[C@@H]2[C@@H]1CCN2S(=O)(=O)c1ccc(OC)cc1 | 9.29 |
| COC1COC2(CCN(C(=O)c3ccc4ccccc4c3)CC2)C1 (stereo not given) | -4.73 |
| CCc1nnc(Nc2cccc(C3CCN(S(=O)(=O)N(C)C)CC3)n2)s1 | -6.79 |
| CCNC(=O)C1CCN(c2nc(-c3ccco3)nc3c2CCNCC3)C1 (stereo not given) | -7.78 |
| CCC(=O)N1CCC2(CCC(N3CCCC3)c3ccccc32)CC1 (stereo not given) | -6.38 |
| CC(C)NC(=O)N1CCC[C@H]1C(=O)NCCCc1cnn(C)c1 | -4.04 |
| CC(C)Cn1cnnc1C1CCCN1C(=O)c1ccc(F)cc1F (stereo not given) | -2.82 |
| CC(C)[C@H]1CN(CCCO)C[C@@H]1NC(=O)CCC(F)(F)F | -7.33 |

| SMILES | cytotoxicity at 70.5 h [%] |
| --- | --- |
| COc1ccsc1C(=O)NC1CCN(c2cccc(F)c2)CC1 | 21.7 |
| Cc1oc(C)c(C(=O)NCc2cccc(C(N)=O)c2)c1C | -4.54 |
| COc1ccc2c(c1)OCC(Cc1cc(N3CCCC3)cnn1)C2 (stereo not given) | 1.96 |
| O=C(c1nc(-c2ccc3cc[nH]c3c2)no1)N1CCCC1 | -5.08 |
| Cc1cnn(CC2CCN(c3cc(C(C)C)nc4ccnn34)CC2)c1 | -0.486 |
| CCOC(=O)C1=NOC(Cc2cc(OC)c3c(c2)OCO3)C1 (stereo not given) | 18.8 |
| CN(C)CC(=O)N1CCc2cccc(S(=O)(=O)N3CCOCC3)c2C1 | 0.694 |
| CCSc1ccc(NC(=O)NC(C)c2ccncc2)cn1 (stereo not given) | -5.74 |
| O=C(c1ccc(-c2ccc(O)nc2)s1)N1CCSCC1 | -14 |
| CN(C)C(=O)CCCS(=O)(=O)Cc1cc(Cl)c2c(c1)OCO2 | -2.84 |
| O=C(O)CN1CCC(F)(F)C2(CCN(c3ccccc3)C2)C1 (stereo not given) | -5.61 |
| O=C(N1CCCO1)[C@@]12CCO[C@@H]1CCN(Cc1ccc(F)cc1)C2 | -1.1 |
| O=C(c1occc1CN1C(=O)Cc2ccccc21)N1CC(O)C1 | -1.51 |
| CCc1cc(=O)[nH]c(SCc2ccccn2)n1 | -5.73 |
| COC(=O)CCn1ccc(=O)c2ccccc21 | -5.76 |
| COCCN1CCN(Cc2nc(-c3ccoc3)no2)CC1 | -4.32 |
| O=C(Nc1ccccc1F)N(CCO)CCOCC(F)(F)F | -4.12 |
| CCc1[nH]c2ccc(CNC(=O)c3cnc(N)nc3C)cc2c1C | -3.2 |
| CCC(C)NC(=O)NCCCn1nc2ccccn2c1=O (stereo not given) | -9.52 |
| CC(=O)NC1CCCN(C(=O)Nc2cnc3c(cnn3C(C)C)c2)C1 (stereo not given) | -2.01 |
| Cc1nn(C)c(Oc2cccc(F)c2)c1NC(=O)C1CCOCC1 | -14.1 |
| CC(C)CNC(=O)N1C[C@H]2CCN[C@H]2C1 | -8.65 |
| O=C(c1ccnnc1)N1C[C@H]2CCC[C@@H](OCc3cccnc3)[C@@H]2C1 | -3.26 |
| Cc1nc([C@@H]2C[C@@H]3CCN(C(=O)Cc4ccsc4)C[C@H]3O2)no1 | -13.8 |
| CC1CCc2n[nH]c(C(=O)NCCCc3ccccn3)c2C1 (stereo not given) | -7.91 |
| CNS(=O)(=O)c1ccc(CNC(=O)Nc2ccccn2)s1 | 3.18 |
| CC(C)Nc1nc2c(cc1C(=O)NCC1CC1)CCNCC2 | -10 |

| SMILES | cytotoxicity at 70.5 h [%] |
| --- | --- |
| CC(=O)Nc1ccc(CNC(=O)CNCc2snnc2C)cc1 | 15.4 |
| CCn1cc(CN(C)S(=O)(=O)c2cc(Cl)ccc2Cl)cn1 | 22.9 |
| O=C(c1cccc(NCc2cccc(F)c2)c1)N1CCC(O)CC1 | 10.8 |
| Cc1nc(C2CCCN2CC(=O)N2CCc3ccccc32)no1 (stereo not given) | 21.3 |
| CCN1CCN(S(=O)(=O)N2CCC(OC)CC2)[C@H]2CS(=O)(=O)C[C@H]21 | -9.02 |
| CCc1nc(CN2CCCC(NCc3nc(C)c(C)o3)C2)no1 (stereo not given) | -10.5 |
| CC(C)c1nccn1-c1cccc(C2CCCN(S(=O)(=O)N(C)C)C2)n1 (stereo not given) | -3.37 |
| O[C@H]1COCCN(Cc2cccc(C(F)(F)F)c2)C1 | -9.83 |
| O=C(Cc1cccc(O)c1)N1CCC2(CC1)c1ccccc1CC2O (stereo not given) | -11.7 |
| Cc1ccc(C(=O)N2CCc3ncnc(-c4cnn(C)c4)c3CC2)cn1 | -2.36 |
| Cc1nc(CN2CCOC(Cn3cncn3)C2)nc2ccccc12 (stereo not given) | -16.8 |
| CC[C@H](C)[C@H](N)C(=O)N1CC(=O)c2sc(Nc3ccc(F)cc3)nc2C1 | 7.24 |
| Cc1ccc(CN2CC[C@H]3O[C@@H](C(=O)N4CCCO4)CC[C@H]32)s1 | -4 |
| CN(C)C(=O)N1CCC2(CC1)CN(CC1CC1)CC21CCNC1=O (stereo not given) | 0.0936 |
| CC(=O)NCc1noc2c1CN(Cc1cnn(C)c1)CC2 | 2.69 |
| O=C1CCCN1CCN1CCC(c2ccn[nH]2)CC1 | -7.63 |
| Cc1cc(CN(C)C2CCCN(Cc3noc(C4CC4)n3)C2)no1 (stereo not given) | 11.8 |
| CN(C)[C@@H]1CN(Cc2ccc(O)cc2)C[C@H]1c1cn(C)c2ccccc12 | 3.53 |
| COc1ccccc1N(C)Cc1nc2c(cnn2C)c(=O)[nH]1 | -4.86 |
| CSc1ccc(NC(=O)NCc2nncn2C2CC2)cc1F | 2.39 |
| Cc1nc(CCCNC(=O)c2cc(F)ccc2O)n[nH]1 | -9.81 |
| CCc1nc(N2CCCN(c3ncccn3)CC2)c2cnn(C)c2n1 | -7.44 |
| Cc1noc(C)c1CN1CC[C@H]2OCC[C@@]2(C(=O)N2CCCC2)C1 | -5.9 |
| Cn1cc(CN2CCC(c3cc(COc4ccc(Cl)cc4)[nH]n3)C2)cn1 (stereo not given) | 0.81 |
| N#Cc1cc(N2CCC(CS(N)(=O)=O)CC2)nc2ccccc12 | 1.54 |
| CC(C1CC1)N(C)C(=O)CCn1cccn1 (stereo not given) | 8.62 |
